≈ marks a conversion by molar mass, not a printed value.

The subject of data set [1] is NF-κB in THP1-Blue NF-κB cells. Kind of data set: NF-κB activity assay (SEAP reporter, LPS-induced). Particulars: 20 μM, LPS 10 ng/mL. In kind it is cell-based. As for the experimental part: THP1-Blue NF-κB cells, NF-κB secreted embryonic alkaline phosphatase (SEAP) reporter monocytes (InvivoGen, USA), were assayed after 20–24 h of incubation following the manufacturer’s protocol. Briefly, cells were seeded at 1 × 10^6 cells/mL in RPMI medium in 96-well plates (180 μL) and treated with complex 3 or 4, Lipopolysaccharide (LPS) (10 ng/mL; […] The next day, NF-κB activation was assessed via the secretion of SEAP. Supernatants (20 μL) were transferred to 96-well plates, and 180 μL of Quanti-Blue was added. Plates were incubated for 2 h at 37°C, and absorbance was measured at 600 nm using an […] 200 PRO microplate reader (TECAN, Switzerland).

For data set [2], the system named is Hep-2 cell line. The following applies: Hep-2 cell line ref 56; cited from earlier work.
Another data set concerns HGF. Set-up: method as in PMID 34657625. Particulars: concentration range 0.1–20 μM ref 54; cited from earlier work.
A further data set has as its system KB cell line. Further details: method as in PMID 36278627. Particulars: 48 h of treatment ref 53; cited from earlier work.
In data set [3] the test system is CAL 27 cell line. Set-up: method as in PMID 32060973, PMID 32099333. The following applies: CAL 27 cell line ref 46, 47; cited from earlier work.
Data set [4] relates to FaDu cell line. Further details: method as in PMID 32628350. The following applies: FaDu cell line ref 48; cited from earlier work.
The test system of data set [5] is CAL 27 cell line. The following applies: cited from earlier work.
The test system of a further data set is A549 cell line. Further details: method as in PMID 32598409. Particulars: A549 cell line ref 33; cited from earlier work.
Data set [6] deals with FaDu cell line. Set-up: method as in PMID 25767602. The following applies: FaDu cell line ref 55; cited from earlier work.
A further data set deals with OSCC cells. Further details: method as in PMID 32391111. Particulars: Ohnishi et al. ref 57; cited from earlier work.
Data set [7] concerns SCC-9 cell line. Further details: method as in PMID 32628350, PMID 25450696. The following applies: SCC-9 cell line ref 48, 49; cited from earlier work.
Another data set relates to THP1-Blue NF-κB cells. Kind of data set: MTT viability assay of THP1-Blue NF-κB cells. It is filed as cell-based. Particulars: concentrations of the NF-κB activity assay, overnight. Here is the method: A total of 20 μL of sterile filtered MTT (Sigma-Aldrich, Merck, Germany) solution (5 mg/mL in PBS) was added to the remaining overnight culture of THP1-Blue NF-κB cells from the above NF-κB activity assay in 96-well plates, which were incubated at 37°C (see above). After 2 h of incubation at 37°C, the supernatant was removed, and the purple formazan product generated in the cells was dissolved by the addition of 100 μL of DMSO to each well. The plates were then gently shaken for 30 s at room temperature to dissolve the precipitates. The absorbance was measured at 570 nm using an […] 200 PRO microplate reader (TECAN, Switzerland) ([43]).
Background: Formazan colour is commonly taken as a measure of viable cells.

The test system of a further data set is Detroit 562 cell line. Set-up: method as in PMID 32121279, PMID 19317462. The following applies: Detroit 562 cell line ref 50, 51; cited from earlier work.
For data set [8], the system named is Hep-2 cell line. Set-up: method as in PMID 23513724. The following applies: HPV-positive Hep-2 cell line ref 52; cited from earlier work.
The target in a further data set is T1, IKKβ (Homo sapiens, UniProt O14920).
T1 construct: purchased BPS Bioscience
T1 sequence (O14920 1-756): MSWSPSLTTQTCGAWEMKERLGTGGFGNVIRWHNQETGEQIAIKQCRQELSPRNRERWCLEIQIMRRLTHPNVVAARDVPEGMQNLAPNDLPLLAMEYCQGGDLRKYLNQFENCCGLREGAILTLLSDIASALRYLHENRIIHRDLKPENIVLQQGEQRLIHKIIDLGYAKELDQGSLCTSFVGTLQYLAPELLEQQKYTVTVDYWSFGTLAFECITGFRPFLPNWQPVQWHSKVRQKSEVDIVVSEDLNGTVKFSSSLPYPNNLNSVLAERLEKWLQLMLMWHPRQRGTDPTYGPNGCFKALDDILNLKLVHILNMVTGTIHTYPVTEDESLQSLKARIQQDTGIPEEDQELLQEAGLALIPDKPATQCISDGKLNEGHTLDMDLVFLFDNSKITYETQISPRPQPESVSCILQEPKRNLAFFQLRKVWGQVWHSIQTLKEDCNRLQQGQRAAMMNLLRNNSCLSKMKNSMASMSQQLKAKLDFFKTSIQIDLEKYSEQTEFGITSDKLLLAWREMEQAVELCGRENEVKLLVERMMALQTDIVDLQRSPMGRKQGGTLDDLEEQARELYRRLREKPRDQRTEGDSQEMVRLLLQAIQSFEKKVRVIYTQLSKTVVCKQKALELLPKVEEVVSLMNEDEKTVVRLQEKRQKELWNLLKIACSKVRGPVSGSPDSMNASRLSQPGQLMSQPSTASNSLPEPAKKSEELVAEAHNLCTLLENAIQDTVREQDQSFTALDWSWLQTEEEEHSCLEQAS
Kind of data set: IKKβ inhibition assay (IKKβ Kinase Assay Kit). In kind it is biochemical. The following applies: fivefold higher concentration than 1 μM. As for the experimental part:
IκB kinase beta (IKKβ) inhibition was determined using the IKKβ Kinase Assay Kit (BPS Bioscience, San Diego, California, USA). […] Kinase-Glo® MAX (Promega, #V6071, Madison, Wisconsin, USA) was used as the detection reagent, with an incubation time of 15 min. Blank values were subtracted from all measurements. Luminescence was measured with an integration time of 1 s using a Spark Microplate Reader (Tecan, Switzerland).

The subject of data set [9] is CAL 27 cell line. Set-up: method as in PMID 32099333, PMID 25767602. The following applies: CAL 27 cell line ref 47, 55; cited from earlier work.
The test system of data set [10] is SCC-9 cell line. Further details: method as in PMID 25450696. The following applies: SCC-9 cell line ref 49; cited from earlier work.

Take `COc1cc(/C=C/C(=O)CC(=O)/C=C/c2ccc(O)c(OC)c2)ccc1O` [Curcumin, curcumin]: the “Reduction of LPS-induced NF-κB activation” value in data set [1] is recorded as “approximately 60%”. Also, the “Concentration with significant inhibition of colony formation and cell migration” value in the data set with Hep-2 cell line [2] was 20 µM. Further, the “Effect on cell viability” value with HGF is listed as “did not significantly affect cell viability”. Moreover, the IC50 (as a rule, the concentration needed to halve the response being measured) in the data set with KB cell line is 8.84 µg/mL (≈ 24 µM); in the data set on CAL 27 cell line [3], 49.9 µM; with FaDu cell line [4], 24.8 µM; in the data set with A549 cell line, 13.1 µM; in the data set on SCC-9 cell line [7], 40.9 µM; in the data set on Hep-2 cell line [8], around 50 µM. Also, the “Concentration reducing cell migratory capacity” value in the data set on CAL 27 cell line [5] (CAL 27 cell line ref 47, 55) is on record as 50 µM. In the data set on CAL 27 cell line [5] (CAL 27 cells, Ma et al. ref 47), the “Concentration significantly inhibiting migration” value is 100 µM. Also, the “Concentration suppressing colony formation” value in the data set with FaDu cell line [6] is listed as 12.5 µM; in the data set with SCC-9 cell line [10], 40 µM. Besides, the Concentration inhibiting migration in the data set on OSCC cells was 15 µM. For the same molecule, the “Cytotoxicity in THP1-Blue NF-κB cells (MTT)” value in the data set with THP1-Blue NF-κB cells was “Neither complex 3, complex 4, nor curcumin exhibited significant cytotoxicity”. Further, in the data set on Detroit 562 cell line, the Concentration showing cytotoxicity entry was “around 20 μM”. Also, on IKKβ, the “Inhibition of IKKβ activity” value is recorded as “approximately 30%”. The “Concentration inhibiting colony formation” value with CAL 27 cell line [9] is given as at least 12.5 µM.

The values are drawn from article PMC12754617, “Ruthenium-enhanced curcumin derivatives target tumor growth and cancer-related inflammation in head and neck cancer models” (Frontiers in Oncology, 2025).
